The data set in a line: Cys/Cys side-chain stapling of bis-cysteine Omomyc mutants by S-alkylation with bis(bromomethyl)arenes (1.25 eq): 4,4'-bis(bromomethyl)biphenyl for i,i+7 or 1,3-bis(bromomethyl)benzene (with 2 eq TCEP) for i,i+4; pH 8. As to conditions: the molecule shown is the open-chain precursor, 100 mM aq NH4HCO3 pH 8 / 25% MeCN, 0.1 mM.

As to “H-AMADIGSMATEENVKRRTHNC(SH)LERQRRC(SH)ELKRSFFALRDQIPELENNEKAPKVVILKKATAYILSVQAETQKLISEIDLLRKQNEQLKHKLEQLRNSAAPAAKRVKLD-OH”, the ring closure, isolated yield (36-membered ring) amounted to 60%.
In turn, “H-AMADIGSPAAKRVKLDMATEENVKRRTHNC(SH)LERQRRC(SH)ELKRSFFALRDQIPELENNEKAPKVVILKKATAYILSVQAETQKLISEIDLLRKQNEQLKHKLEQLRNSAA-OH” displayed a ring closure, isolated yield (36-membered ring) of 46%.
“H-AMADIGSMAC(SH)EENC(SH)KRRTHNVLERQRRNELKRSFFALRDQIPELENNEKAPKVVILKKATAYILSVQAETQKLISEIDLLRKQNEQLKHKLEQLRNSAA-OH” had a ring closure, isolated yield (22-membered ring) of 38%.
“H-AMADIGSMATEENVKRRTHNC(SH)LERQRRC(SH)ELKRSFFALRDQIPELENNEKAPKVVILKKATAYILSVQAETQKLISEIDLLRKQNEQLKHKLEQLRNSAA-OH” displayed a ring closure, isolated yield (36-membered ring) of 69%.
“H-AMADIGSMATEENC(SH)KRRTHNC(SH)LERQRRNELKRSFFALRDQIPELENNEKAPKVVILKKATAYILSVQAETQKLISEIDLLRKQNEQLKHKLEQLRNSAA-OH” had a ring closure, isolated yield (36-membered ring) of 67%.
Consider “H-AMADIGSMATEENC(SH)KRRC(SH)HNVLERQRRNELKRSFFALRDQIPELENNEKAPKVVILKKATAYILSVQAETQKLISEIDLLRKQNEQLKHKLEQLRNSAA-OH”, for which the ring closure, isolated yield (22-membered ring) came out at 26%.

The values above are taken from publication PMC13065503.
